Test results published in US8314123B2, “5, 6, or 7-substituted -3-(hetero) arylisoquinolinamine derivatives and therapeutic use thereof” (Rexahn Pharmaceuticals, Inc., priority 2006, dated 2012).

Experiments:
SK-MEL-28 (melanoma) = test: In vitro cell proliferation assay (SRB), SK-MEL-28; format: cell-based; settings: Homo sapiens, SRB method, 96 hours, read-out: Inhibition of cell growth (IC50, μM) SK-MEL-28
Method: (§1) Cancer cell lines to determine the effect of 5, 6, or 7-substituted-3-(hetero)arylisoquinolinamine compounds were obtained from the following sources: Human MDA-MB-231 (breast), PC3 (prostate), HCT-15 (colon), HCT116 (colon), OVCAR-3 (ovary), Caki-1 (kidney), PANC-1 (pancreas), SNB-19 (glioblastoma) and SK-MEL-28 (melanoma) from the American Type Culture Collection (ATCC) (Manassas, Va.). PC3, OVCAR-3, SK-MEL-28 and SNB-19 were grown in RPMI1640 medium (Invitrogen, Carlsbad, Calif.) supplemented with 10% fetal bovine serum (“FBS”), 1 mM sodium pyruvate, 10 mM HEPES and 100 U/ml penicillin and 100 μg/ml streptomycin (“P/S”). MDA-MB-231, Caki-1, HCT-15 (colon) and PANC-1 cells were maintained in Dulbecco's modified Eagle's medium (“DMEM”, Invitrogen) supplemented with 10% FBS, P/S and 10 mM HEPES. HCT116 cells were maintained in DMEM supplemented with 10% FBS, P/S and 10 mM HEPES for in vitro cell proliferation assay and in RPMI1640 medium supplemented with 10% FBS, 1 mM sodium pyruvate, 10 mM HEPES and P/S for in vitro cell cycle analysis. All cells were incubated at 37° C. under humidified 5% CO2.
(§2) The growth inhibition of the 5, 6, or 7-substituted-3-(hetero)arylisoquinolinamine derivatives against a variety of human tumor cells was evaluated to study the relative importance of particular substituent groups on the compounds. The 5, 6, or 7-substituted-3-(hetero)arylisoquinolinamine derivatives, prepared as described above, were tested with DMSO as a control.
(§3) The growth inhibition assay of representative 5, 6, or 7-substituted-3-(hetero)arylisoquinolinamine derivatives against human tumor cell lines was performed using the Sulforhodamine B (“SRB”) method (Skehan et al., J. National Cancer Institute, 82: 1107-1112 (1990)). Briefly, exponentially growing tumor cells were seeded into a 96-well plate at a density of 2-3×10^3 cells/well and treated with 5, 6, or 7-substituted-3-(hetero)arylisoquinolinamine compounds the next day. Triplicate wells were used for each treatment. The cells were incubated with the various compounds for 96 hours at 37° C. in a humidified 5% CO2 atmosphere. After 96-hour incubation, cells were fixed with 10% trichloroacetic acid (“TCA”), incubated for 1 hour at 4° C., and washed 3 times with tap water. Subsequently, cells were stained with 0.4% sulforhodamine B in 1% acetic acid for 30 minutes, washed 4 times with 1% acetic acid, and air-dried again. After 5 minutes agitation in 10 mM Tris solution, the absorbance of each well was measured at 530 nm using Benchmark Plus Microplate reader (Bio-Rad Laboratories, Hercules, Calif.).
(§4) To translate the OD530 values into the number of live cells in each well, the OD530 values were compared to those on standard OD530-versus-cell number curves generated for each cell line. The percent survival was calculated using the formula: % Survival=live cell number [test]/live cell number [control]×100
(§5) The IC50 values were calculated by non-linear regression analysis.

human cancer cell lines = test: Growth inhibition against the panel of human tumor cell lines (SRB), overall statements; format: cell-based; settings: Table 3 cell lines
Method: as §1, §2, §3, §4, §5
Using QSAR and medicinal chemistry techniques, a large number of compounds, including the compounds shown in Table 1-2 above, were synthesized. The synthesized compounds were screened against at least four cancer cell lines, PANC-1, MDA-MB-231, HCT116 and Caki-1, at approximately 1 μM concentration. Compounds showing activity in at least one of these cell lines were selected for further screening. From these compounds, thirty compounds were selected for further evaluation as broad-spectrum anti-proliferative agents as shown in the following Table 3.

SNB-19 (glioblastoma) = test: In vitro cell proliferation assay (SRB), SNB19; format: cell-based; settings: Homo sapiens, SRB method, 96 hours, read-out: Inhibition of cell growth (IC50, μM) SNB19
Method: as §1, §2, §3, §4, §5

OVCAR-3 (ovary) = test: In vitro cell proliferation assay (SRB), OVCAR3; format: cell-based; settings: Homo sapiens, SRB method, 96 hours, read-out: Inhibition of cell growth (IC50, μM) OVCAR3
Method: as §1, §2, §3, §4, §5

PANC-1 (pancreas) = test: In vitro cell proliferation assay (SRB), PANC-1; format: cell-based; settings: Homo sapiens, SRB method, 96 hours, read-out: Inhibition of cell growth (IC50, μM) PANC-1
Method: as §1, §2, §3, §4, §5

HCT116 (colon) = test: In vitro cell proliferation assay (SRB), HCT116; format: cell-based; settings: Homo sapiens, HCT-116; SRB method, 96 hours; Table 3; read-out: Inhibition of cell growth (IC50, μM) HCT116
Method: as §1, §2, §3, §4, §5

MDA-MB-231 (breast) = test: In vitro cell proliferation assay (SRB), MDA-MB-231; format: cell-based; settings: Homo sapiens, SRB method, 96 hours, read-out: Inhibition of cell growth (IC50, μM) MDA-MB-231
Method: as §1, §2, §3, §4, §5

Caki-1 (kidney) = test: In vitro cell proliferation assay (SRB), Caki-1; format: cell-based; settings: Homo sapiens, SRB method, 96 hours, read-out: Inhibition of cell growth (IC50, μM) Caki-1
Method: as §1, §2, §3, §4, §5

PC3 (prostate) = test: In vitro cell proliferation assay (SRB), PC3; format: cell-based; settings: Homo sapiens; SRB method, 96 hours; read-out: Inhibition of cell growth (IC50, μM) PC3
Method: as §1, §2, §3, §4, §5

HCT116 cells = test: In vitro cell cycle analysis (PI staining); format: cell-based, Human; settings: HCT116, 0.3 uM, 12 hours
Method: as §1
This assay was used to determine the ability of 5, 6, or 7-substituted-3-(hetero)arylisoquinolinamine compounds to arrest cells at a specific phase during cell cycle. The day before drug treatment, HCT116 cells were plated at 50-70% saturation in a 10 cm dish in RPMI1640 medium with 10% FBS and then incubated overnight in a humidified 37° C. incubator with 5% CO2. The following day RPMI1640 medium (with 10% FBS) carrying the appropriate concentration of test compound solubilized in DMSO was added to the dishes. No compound control treatment was also included (0.25% DMSO). The cells were then incubated for 12 hours and were harvested by centrifugation at 7,000 rpm for 5 minutes. Cell pellets were resuspended in 0.2 ml of PBS containing 0.1% glucose and 2% FBS. Subsequently, 5 ml ice-cold 70% ethanol was added dropwise with shaking and the treated cells were stored at −20° C. at least 30 minutes. Cells were centrifuged at 2,000 rpm for 5 minutes and washed once with 1 ml PBS with 0.1% glucose and 2% FBS. After removal of the supernatant, cells were resuspended in 0.5 ml of 70 μM propium iodide (PI) solution containing 0.1% Triton X-100, 40 mM sodium citrate, pH 7.4. RNase was added at 50 μg/ml final concentration and cells were incubated at 37° C. for 30 minutes. PI stained cells were analyzed by Guava PCA-AFP instrument using its cell cycle software program (Guava Technologies, Hayward, Calif.) and expressed as percentage of cells in G1, S and G2/M phases of the cell cycle.

Row | Compound | IC50 (SK-MEL-28 (melanoma)) | activity in growth inhibition of human cancer cell compared to Compound 23 (human cancer cell lines) | IC50 (SNB-19 (glioblastoma)) | IC50 (OVCAR-3 (ovary)) | IC50 (PANC-1 (pancreas)) | IC50 (HCT116 (colon)) | IC50 (MDA-MB-231 (breast)) | IC50 (Caki-1 (kidney)) | IC50 (PC3 (prostate)) | % Cells in S (HCT116 cells; DMSO control 20.5) | % Cells in G1 (HCT116 cells; DMSO control 39.4) | % Cells in G2/M (HCT116 cells; DMSO control 40.1)
1 | COc1cccc(-c2cc3cc(N(C)C)ccc3c(N)n2)c1 [Compound 21, 3-(3-Methoxyphenyl)-N^6,N^6-dimethyl-isoquinoline-1,6-diamine] | 0.11 µM | equal or better activity | 0.094 µM | 0.071 µM | 0.11 µM | 0.064 µM | 0.059 µM | 0.068 µM | 0.19 µM | – | – | –
2 | COc1cccc(-c2cc3cc(C)ccc3c(N)n2)c1 [Compound 25, 3-(3-Methoxyphenyl)-6-methylisoquinolin-1-amine] | 0.34 µM | equal or better activity | 0.29 µM | 0.18 µM | 0.31 µM | 0.19 µM | 0.14 µM | 0.13 µM | 0.25 µM | – | – | –
3 | Cc1ccc2cc(-c3ccc4c(c3)OCO4)nc(N)c2c1 [Compound 45, 3-(Benzo[d][1,3]dioxol-6-yl)-7-methylisoquinolin-1-amine] | 0.42 µM | equal or better activity | 0.38 µM | 0.23 µM | 0.37 µM | 0.18 µM | 0.15 µM | 0.13 µM | 0.25 µM | – | – | –
4 | COc1ccc(-c2cc3ccc(C)cc3c(N)n2)c(C)c1 [Compound 42, 3-(4-Methoxy-2-methylphenyl)-7-methylisoquinolin-1-amine] | 0.21 µM | equal or better activity | 0.2 µM | 0.13 µM | 0.18 µM | 0.12 µM | 0.079 µM | 0.065 µM | 0.2 µM | – | – | –
5 | Cc1ccc(-c2cc3cc(C)ccc3c(N)n2)cc1 [Compound 36, 6-Methyl-3-p-tolylisoquinolin-1-amine] | 0.25 µM | equal or better activity | 0.21 µM | 0.15 µM | 0.2 µM | 0.18 µM | 0.15 µM | 0.16 µM | 0.22 µM | – | – | –
6 | Cc1ccc(Cl)cc1-c1cc2ccc(Cl)cc2c(N)n1 [Compound 10, 7-chloro-3-(5-chloro-2-methylphenyl)isoquinolin-1-amine] | 0.14 µM | equal or better activity | 0.19 µM | 0.071 µM | 0.17 µM | 0.14 µM | 0.11 µM | 0.15 µM | 0.26 µM | – | – | –
7 | Cc1ccc2c(N)nc(-c3c(C)cccc3C)cc2c1 [Compound 34, 6-Methyl-3-(2,6-dimethylphenyl)isoquinolin-1-amine] | 0.23 µM | equal or better activity | 0.24 µM | 0.16 µM | 0.21 µM | 0.17 µM | 0.14 µM | 0.12 µM | 0.24 µM | – | – | –
8 | Cc1ccc2cc(-c3c(C)cccc3C)nc(N)c2c1 [Compound 43, 7-Methyl-3-(2,6-dimethylphenyl)isoquinolin-1-amine] | 0.12 µM | equal or better activity | 0.12 µM | 0.075 µM | 0.079 µM | 0.074 µM | 0.051 µM | 0.048 µM | 0.12 µM | 10.8% | 15.3% | 73.9%
9 | Cc1ccc2c(N)nc(-c3ccc4c(c3)OCO4)cc2c1 [Compound 28, 3-(Benzo[d][1,3]dioxol-6-yl)-6-methylisoquinolin-1-amine] | 0.22 µM | equal or better activity | 0.23 µM | 0.16 µM | 0.22 µM | 0.16 µM | 0.13 µM | 0.11 µM | 0.19 µM | – | – | –
10 | COc1cccc(-c2cc3cc(OC)c(OC)cc3c(N)n2)c1 [Compound 52, 6,7-Dimethoxy-3-(3-methoxyphenyl)isoquinolin-1-amine] | 0.23 µM | equal or better activity | 0.22 µM | 0.074 µM | 0.19 µM | 0.16 µM | 0.14 µM | 0.17 µM | 0.18 µM | – | – | –
11 | COc1ccc(C)c(-c2cc3ccc(C)cc3c(N)n2)c1 [Compound 50, 3-(5-Methoxy-2-methylphenyl)-7-methyl-isoquinolin-1-amine] | 0.051 µM | equal or better activity | 0.052 µM | 0.042 µM | 0.058 µM | 0.042 µM | 0.03 µM | 0.047 µM | 0.07 µM | – | – | –
12 | COc1ccc(-c2cc3ccc(N(C)C)cc3c(N)n2)cc1OC.Cl [Compound 15, 3-(3,4-Dimethoxyphenyl)-N^7,N^7-dimethylisoquinoline-1,7-diamine hydrochloride] | 0.33 µM | equal or better activity | 0.25 µM | 0.14 µM | 0.19 µM | 0.18 µM | 0.15 µM | 0.17 µM | 0.23 µM | – | – | –
